In patent US12139717B2, “Improving plant regeneration” (KWS SAAT SE & Co. KGaA, priority 2019, dated 2024):
Entries after “also recorded” stand apart in the source; their conditions may differ.

Tests used:
Arabidopsis thaliana = settings: Poretska et al. 2016; cited from earlier work
sugar beet leaf explants = test: Sugar beet callus induction from leaf explants in callus induction medium; assay type: cell-based; parameters: key to Callus induction effect: −: no callus induction effect; +: modest callus induction effect; ++: strong callus induction effect; settings: for callus induction in recalcitrant genotype A (FIG. 3): DMSO control
Procedure: 1. Micropropagated shoots of various proprietary genotypes were used as starting material: Genotypes A and B are recalcitrant to callus induction and plant regeneration. […] Therefore, such calli were never transformable.
Genotype C is less recalcitrant. Shoots were multiplied in MS salts+30 g/l sucrose and 0.25 mg/l benzyladenine (BAP).
2. To induce friable callus, leaf explants were isolated from micropropagated shoots and incubated in callus induction medium (CIM) containing MS salts including 15 g/I sucrose and 2 mg/l BAP at 28° C. for 7 to 8 weeks. […] HP is Hyperphyllin, a small molecule with the chemical formula N-[4-Amino-2-chlorophenyl]-2,4-dichlorobenzamide (CAS #: 42480-64-8).
After incubation period the induction and formation of callus has been analysed. […] There is no significant difference in induction efficiency between these two concentrations.

sugar beet friable calli = test: Sugar beet shoot induction and plant regeneration from induced calli; assay type: cell-based; settings: calli induced with vs without HP
Procedure: 3. Friable calli of step 2 were harvested from the induction and transferred to the shoot induction medium containing MS salts, 30 g/l sucrose, 1 mg/l GA3 and 1 mg/l Thidiazuron (TDZ). The calli were incubated at 24° C. in the light/dark cycle (16 h/8 h) for 1 to 2 weeks. 4. Regenerated shoots were mounted and cultured in the medium of step 1. The plants are grown at 24° C. in the light/dark cycle (16 h/8 h).

sugar beet callus = test: Agrobacteria-mediated transformation of HP induced sugar beet callus; assay type: cell-based; settings: recalcitrant genotype; 70s::tDT construct; seven days after infection
Procedure: a. Sugar beet calli were induced as described in steps 1 and 2.
b. Friable calli were mounted in medium containing MS salts, 30 g/l sucrose, 1 mg/l GA3 and 1 mg/l Thidiazuron (TDZ), and kept for 1 week in the dark, 24° C.
c. Agrobacterium AGL-1 harbouring the vector pZFN-nptII-70s::AtGRF5 and pZFN-nptII-70s::tDT was grown in medium (5 g/l tryptone+2.5 g/l yeast extract+1 g/l NaCl+5 g/l mannitol+0.1 g/l MgSO4×7H2O+0.25 g/l KH2PO4+1 g/l glutamic acid, pH 7.0) supplemented with the appropriate antibiotics, at 28° C., for 24 h.
d. Calli were inoculated with Agrobacterium suspension (medium: 440 mg/l CaCl2×2H2O+170 mg/l KH2PO4+1.9 g/l KNO3+180.7 mg/l MgSO4+1.65 g/l NH4NO3+2 mg/l BAP+40 μg/l Acetosyringone+20 g/l sucrose+2 g/l glucose, pH 6.0) at an OD600 of 0.8. The callus tissue and the Agrobacterium were incubated in medium comprising 440 mg/l CaCl2×2H2O, 170 mg/l KH2PO4, 1.9 g/l KNO3, 180.7 mg/l MgSO4, 1.65 g/l NH4NO3, 2 mg/l BAP, 40 μg/l Acetosyringone, 20 g/l sucrose and 2 g/l glucose, at 21° C. for 3 days in the dark.
e. Calli were sub-cultured to medium comprising MS salts, 30 g/l sucrose, 1 mg/l GA3, 1 mg/l TDZ and 500 mg/l Timentin, and incubated in the dark, at 24° C. for 1 week.
f. […]

SMILES: O=C(Nc1ccccc1)c1ccccc1Cl [HP derivate A3]
- leaf formation rate (Arabidopsis thaliana): enhance leaf formation rate

SMILES: O=C(Nc1c(F)cccc1F)c1ccc(Cl)cc1 [HP derivate A1]
- callus inducing effect (in words) (sugar beet leaf explants; 30 μM): worked
- Callus induction effect (sugar beet leaf explants; 30 μM dissolved in 2 ml/L DMSO): +
- Callus induction effect (sugar beet leaf explants; 50 μM dissolved in 2 ml/L DMSO): −
- leaf formation rate (Arabidopsis thaliana): enhance leaf formation rate

SMILES: O=C(Nc1ccccc1)c1c(F)cccc1Cl [HP derivate A2]
- callus inducing effect (in words) (sugar beet leaf explants; 30 μM): strong callus-inducing effect
- Callus induction effect (sugar beet leaf explants; 30 μM dissolved in 2 ml/L DMSO): ++
- callus inducing effect (in words) (sugar beet leaf explants; 50 μM): weak effect
- callus induction in recalcitrant genotype (FIG. 9) (sugar beet leaf explants; 50 μM as printed in legend, control without HP treatment): promotes callus induction
- Callus induction effect (sugar beet leaf explants; 50 μM dissolved in 2 ml/L DMSO): +
- leaf formation rate (Arabidopsis thaliana): enhance leaf formation rate

SMILES: Nc1ccc(NC(=O)c2ccc(Cl)cc2Cl)c(Cl)c1 [HP, N-[4-Amino-2-chlorophenyl]-2,4-dichlorobenzamide]
- callus inducing effect (in words) (sugar beet leaf explants; 10 μM): modest effect
- Callus induction effect (sugar beet leaf explants; 10 μM dissolved in 2 ml/L DMSO): +
- callus inducing effect (in words) (sugar beet leaf explants; 30 μM): strong callus inducing effect
- Callus induction effect (sugar beet leaf explants; 30 μM dissolved in 2 ml/L DMSO): ++
- amount of callus tissue induced from leaves (FIG. 5) (sugar beet leaf explants; 30 μM vs control without HP): much more amount of callus tissue
- callus induction in recalcitrant genotype A (FIG. 3) (sugar beet leaf explants; 30 μM): dramatically promotes callus induction; also recorded: promotes callus formation
- callus inducing effect (in words) (sugar beet leaf explants; 50 μM): strong callus inducing effect
- Callus induction effect (sugar beet leaf explants; 50 μM dissolved in 2 ml/L DMSO): ++
- callus induction in recalcitrant genotype A (FIG. 3) (sugar beet leaf explants; 50 μM): promotes callus formation
- callus inducing effect (in words) (sugar beet leaf explants; 100 μM): modest effect
- Callus induction effect (sugar beet leaf explants; 100 μM dissolved in 2 ml/L DMSO): +
- Callus induction effect (sugar beet leaf explants; 500 μM dissolved in 2 ml/L DMSO): −
- Callus induction effect (sugar beet leaf explants; 1 mM dissolved in 2 ml/L DMSO): −
- callus inducing effect (in words) (sugar beet leaf explants; higher concentration (500 μM, 1 mM)): no effect
- callus induction efficiency with vs without HP (FIG. 4) (sugar beet leaf explants; recalcitrant genotypes A and B): boosting effect
- plants regenerated from induced callus (FIG. 6) (sugar beet friable calli): More plants could be regenerated
- Agrobacterium infection of HP induced callus (FIG. 7) (sugar beet callus): can be infected by agrobacteria
- leaf formation rate (Arabidopsis thaliana): enhance leaf formation rate
